The source of these data is ChEMBL document CHEMBL1140285, “Synthesis and ocular effects of imidazole nitrolic acids” (2005).

Assay [1] has as its system Oryctolagus cuniculus. Kind of assay: Increase in cGMP concentration in aqueous humor after intravitreal administration of compound in rabbits; control value is 14.31. The class given is functional, Aqueous humor of eyeball.
The test system of assay [2] is Oryctolagus cuniculus. Description: Increase in NOx concentration in plasma after intravitreal administration of compound in rabbits; control value is 408.59. The class given is functional.
Assay [3] relates to Sus scrofa. Description: Increase in nitrite concentration in porcineiris-ciliary body after administration of compound at the concentrations of 10 uM; control value is 0.15.
The subject of assay [4] is Oryctolagus cuniculus. Kind of assay: Increase in nitrite concentration in plasma after intravitreal administration of compound in rabbits; control value is 0.98. The format is functional.
For assay [5], the system named is Sus scrofa. Kind of assay: Increase in cGMP concentration in porcineiris-ciliary body after administration of compound at the concentrations of 100 uM; control value is 0.46.
Assay [6] relates to Oryctolagus cuniculus. Description: Maximal decrease in IOP observed with in 24 hours after intravitreal administration of the compound at the concentration of 20 mM. The class given is functional.
Assay [7] relates to Sus scrofa. Kind of assay: Increase in nitrite concentration in porcineiris-ciliary body after administration of compound at the concentrations of 100 uM; control value is 0.15.
For assay [8], the system named is Oryctolagus cuniculus. Description: Increase in NOx concentration in aqueous humor after intravitreal administration of compound in rabbits; control value is 450.31. The format is functional, Aqueous humor of eyeball.
Assay [9] concerns Oryctolagus cuniculus. Kind of assay: Increase in nitrite concentration in aqueous humor after intravitreal administration of compound in rabbits; control value is 2.40. The format is functional, Aqueous humor of eyeball.
Assay [10] concerns Oryctolagus cuniculus. Kind of assay: Increase in NOx concentration in porcineiris-ciliary body after administration of compound at the concentrations of 10 uM and 100 uM; control value is 0.36. The format is functional.
The test system of assay [11] is Sus scrofa. Kind of assay: Increase in cGMP concentration in porcineiris-ciliary body after administration of compound at the concentrations of 10 uM; control value is 0.46.
The test system of assay [12] is Oryctolagus cuniculus. Kind of assay: Increase in nitrite concentration in porcineiris-ciliary body after administration of compound at the concentrations of 10 uM and 100 uM; control value is 0.15; NE is no effect on IOP. The class given is functional.
For assay [13], the system named is Oryctolagus cuniculus. Description: Increase in NOx concentration in porcineiris-ciliary body after administration of compound at the concentrations of 10 uM and 100 uM; control value is 0.36; NE is no effect on IOP. The class given is functional.
Assay [14] deals with Oryctolagus cuniculus. Description: Maximal decrease in IOP observed with in 24 hours after intravitreal administration of the compound; NE is no effect on IOP. The format is functional, organism-based.
The test system of assay [15] is Sus scrofa. Description: Increase in NOx concentration in porcineiris-ciliary body after administration of compound at the concentrations of 10 uM; control value is 0.36.
Assay [16] has as its system Sus scrofa. Description: Increase in NOx concentration in porcineiris-ciliary body after administration of compound at the concentrations of 100 uM; control value is 0.36.
The subject of assay [17] is Oryctolagus cuniculus. Description: Maximal decrease in IOP observed with in 24 hours after intravitreal administration of the compound;NE is no effect on IOP. The class given is functional, organism-based.
Assay [18] deals with Oryctolagus cuniculus. Description: Maximal decrease in IOP observed with in 24 hours after intravitreal administration of the compound; NE is no effect. The format is functional, organism-based.
Assay [19] has as its system Oryctolagus cuniculus. Description: Increase in NOx concentration in porcineiris-ciliary body after administration of compound at the concentrations of 10 uM and 100 uM; NE is no effect. The format is functional.
Assay [20] concerns Oryctolagus cuniculus. Kind of assay: Maximal decrease in IOP observed with […] after intravitreal administration of the compound at the concentration of 20 mM. The class given is functional.
Assay [21] deals with Oryctolagus cuniculus. Kind of assay: Increase in NOx concentration in aqueous humor after intravitreal administration of compound in rabbits; control value is 500.86. The format is functional, Aqueous humor of eyeball.
In assay [22] the test system is Oryctolagus cuniculus. Kind of assay: Increase in nitrite concentration in aqueous humor after intravitreal administration of compound in rabbits; control value is 1.32. The format is functional, Aqueous humor of eyeball.
In assay [23] the test system is Oryctolagus cuniculus. Kind of assay: Increase in cGMP concentration in aqueous humor after intravitreal administration of compound in rabbits; control value is 9.17. The format is functional, Aqueous humor of eyeball.
In assay [24] the test system is Oryctolagus cuniculus. Kind of assay: Increase in NOx concentration in plasma after topical administration of compound in rabbits; control value is 408.59. The format is functional.
Assay [25] deals with Oryctolagus cuniculus. Description: Increase in cGMP concentration in aqueous humor after topical administration of compound in rabbits; control value is 16.10. The format is functional, Aqueous humor of eyeball.
The test system of assay [26] is Oryctolagus cuniculus. Kind of assay: Increase in nitrite concentration in plasma after topical administration of compound in rabbits; control value is 0.98. The format is functional.
The test system of assay [27] is Oryctolagus cuniculus. Kind of assay: Increase in NOx concentration in aqueous humor after topical administration of compound in rabbits; control value is 309.09. The format is functional, Aqueous humor of eyeball.
The test system of assay [28] is Oryctolagus cuniculus. Description: Increase in nitrite concentration in aqueous humor after topical administration of compound in rabbits; control value is 1.31. The format is functional, Aqueous humor of eyeball.

Each structure is given as a SMILES string. The source made the active and inactive calls. The rule behind the calls is not given here.

As to `O=[N+]([O-])/C(=N\O)c1c[nH]cn1`, the Increase in concentration turned out to be 21.77 pmol/mg prot in the assay on Oryctolagus cuniculus [1]; 469.42 µM in the assay on Oryctolagus cuniculus [2]; 0.18 µM with Sus scrofa [3]; 1.38 µM with Oryctolagus cuniculus [4]; 0.18 µM with Sus scrofa [7]; 451.94 µM with Oryctolagus cuniculus [8]. The figures for the Increase in concentration in the assay with Oryctolagus cuniculus [9] and with Oryctolagus cuniculus [10] were 2.49 µM and “No effect”, respectively. Besides, the figures for the cGMP concentration in the assay on Sus scrofa [5] and in the assay on Sus scrofa [11] were 0.55 pmol/mg prot and 0.51 pmol/mg prot, respectively. In the assay with Oryctolagus cuniculus [6], the “Maximal decrease in IOP” value is recorded as -7.3 mmHg.
Turning to `Cn1cncc1/C=N/O`, the cGMP concentration is 0.58 pmol/mg prot in the assay with Sus scrofa [5] and 0.51 pmol/mg prot with Sus scrofa [11]. Besides, the Increase in concentration result in the assay with Oryctolagus cuniculus [12] and in the assay on Oryctolagus cuniculus [13] was “No effect” in each case. Further, in the assay on Oryctolagus cuniculus [14], the “Maximal decrease in IOP” value is “No effect”.
On to `Cc1[nH]cnc1/C(=N/O)[N+](=O)[O-]`, for which the Increase in concentration was found to be 3.06 µM in the assay on Sus scrofa [15], 30.62 µM with Sus scrofa [16], 3.62 µM in the assay on Sus scrofa [3] and 31.22 µM in the assay with Sus scrofa [7]. In addition, the cGMP concentration in the assay on Sus scrofa [5] was 1.22 pmol/mg prot; in the assay on Sus scrofa [11], 0.6 pmol/mg prot. Also, in the assay on Oryctolagus cuniculus [17], the “Maximal decrease in IOP” value was “No effect”.
Turning to `O/N=C/c1cncn1Cc1ccccc1` [listing 1 of 2 here], the cGMP concentration with Sus scrofa [11] came out at 0.3 pmol/mg prot.
Regarding `O=[N+]([O-])/C(=N\O)c1ncc[nH]1`, the “Maximal decrease in IOP” value in the assay with Oryctolagus cuniculus [18] was “inactive”. Moreover, the Increase in concentration result with Oryctolagus cuniculus [19] was “inactive”.
As to `Cn1cncc1/C(=N/O)[N+](=O)[O-]` [listing 1 of 2 here], the Increase in concentration in the assay with Sus scrofa [15] came to 3.38 µM; with Sus scrofa [16], 29.96 µM; in the assay on Sus scrofa [3] it was 3.46 µM; in the assay on Sus scrofa [7], 32.07 µM. The values for the cGMP concentration with Sus scrofa [5] and in the assay on Sus scrofa [11] were 1.19 pmol/mg prot and 0.87 pmol/mg prot, respectively.
Consider `Cn1cncc1C=O`, for which the Increase in concentration in the assay on Sus scrofa [15] amounted to 0.63 µM; with Sus scrofa [16] it was 0.09 µM; with Sus scrofa [3], 0.34 µM; in the assay with Sus scrofa [7] it was 0.62 µM. Moreover, the cGMP concentration in the assay on Sus scrofa [5] stood at 0.5 pmol/mg prot; with Sus scrofa [11], 0.38 pmol/mg prot. Besides, the “Maximal decrease in IOP” value in the assay on Oryctolagus cuniculus [14] was “No effect”.
For the molecule `Cl.O/N=C/c1cncn1Cc1ccccc1`, the values for the Increase in concentration with Sus scrofa [15] and in the assay with Sus scrofa [16] were 1.97 µM and 2.21 µM, respectively. Besides, the cGMP concentration in the assay on Sus scrofa [5] and in the assay with Sus scrofa [11] was 0.58 pmol/mg prot in each case.
Consider `Cn1cncc1/C(=N/O)[N+](=O)[O-].O=[N+]([O-])O`, for which the Increase in concentration in the assay with Sus scrofa [15] amounted to 4.87 µM; with Sus scrofa [16], 51.95 µM; with Oryctolagus cuniculus [21], 524.29 µM; in the assay with Oryctolagus cuniculus [2], 425.49 µM; with Sus scrofa [3], 2.68 µM; with Oryctolagus cuniculus [4], 0.75 µM. Besides, the values for the Increase in concentration in the assay on Oryctolagus cuniculus [22], with Sus scrofa [7] and in the assay on Oryctolagus cuniculus [23] were 10.32 µM, 28.05 µM and 9.41 pmol/mg prot, respectively. In the assay on Oryctolagus cuniculus [20], the “Maximal decrease in IOP” value is given as -4 mmHg. Also, the cGMP concentration in the assay on Sus scrofa [5] came out at 2.76 pmol/mg prot; in the assay with Sus scrofa [11], 1.01 pmol/mg prot.
`O/N=C/c1cncn1Cc1ccccc1` [listing 2 of 2 here]: the Increase in concentration entry in the assay with Oryctolagus cuniculus [12] and with Oryctolagus cuniculus [13] was “No effect” each time. Besides, the “Maximal decrease in IOP” value in the assay with Oryctolagus cuniculus [14] was “No effect”.
In the case of `O=Cc1cncn1Cc1ccccc1`, the values for the cGMP concentration in the assay with Sus scrofa [5] and with Sus scrofa [11] were 0.38 pmol/mg prot and 0.3 pmol/mg prot, respectively. In addition, the Increase in concentration entry in the assay with Oryctolagus cuniculus [12] and in the assay on Oryctolagus cuniculus [13] was “No effect” throughout. Moreover, the “Maximal decrease in IOP” value in the assay with Oryctolagus cuniculus [14] is “No effect”.
In the case of `O=[N+]([O-])/C(=N\O)c1c[nH]c(-c2ccccc2)n1`, the “Maximal decrease in IOP” value in the assay on Oryctolagus cuniculus [14] was “No effect”.
As to `O=[N+]([O-])/C(=N\O)c1cncn1Cc1ccccc1`, the Increase in concentration in the assay on Sus scrofa [15] is 2.01 µM; in the assay with Sus scrofa [16], 24.6 µM; in the assay on Oryctolagus cuniculus [24], 379.43 µM; in the assay on Sus scrofa [3], 2.15 µM; in the assay on Oryctolagus cuniculus [25] it was 16.79 pmol/mg prot; in the assay on Oryctolagus cuniculus [26], 0.87 µM. The figures for the Increase in concentration in the assay on Oryctolagus cuniculus [27], in the assay with Sus scrofa [7] and in the assay with Oryctolagus cuniculus [28] were 302.19 µM, 24.44 µM and 1.61 µM, respectively. The values for the cGMP concentration in the assay with Sus scrofa [5] and in the assay on Sus scrofa [11] were 3.29 pmol/mg prot and 0.46 pmol/mg prot, respectively. In addition, in the assay with Oryctolagus cuniculus [14], the “Maximal decrease in IOP” value was “No effect”.
For `Cn1cncc1/C(=N/O)[N+](=O)[O-]` [listing 2 of 2 here], the “Maximal decrease in IOP” value in the assay with Oryctolagus cuniculus [14] is “No effect”.
